Where “and” joins values, the source holds several entries; their conditions need not be identical. Equal values may be shown once. Read-outs that look alike come from different tables or passages of the source.
Legend:
Assay type in all cases: cell-based
UCH2 = assay: MTT cytotoxicity assay; details: read-out: Selinexor IC50 (μM)
XPO1 = XPO1 (Homo sapiens, UniProt O14980); assay: XPO1 occupancy assay in cultured cell lines (biotinylated probe pull-down, Simple Western); parameters: Cells were collected, washed with PBS, and lysed with RIPA Buffer; endogenous in cells; host or cells: MM.1S
Method: b-LMB was tested for the ability to bind XPO1 protein. First, a dose-response curve was generated by exposing MM.1S cells to increasing concentrations of b-LMB (0 – 500 nM) for 1.5 hours in culture. The cells were then collected, lysed, and a portion of the lysate (input) was reserved prior to incubating the remaining lysate with streptavidin-tagged beads overnight. After extensive washes, b-LMB bound XPO1 was eluted from the beads, and XPO1 from both input and bead eluate was detected and quantified by Simple Western on Peggy Sue. Simple Western allows for the chemiluminescent detection of proteins from small volumes of samples that are run through a matrix-filled capillary. The signal is detected by a CCD camera which generates a digital image and then reports quantitative results. […] The protein signals for XPO1 detected by Simple Western in Figure 2A were reported as mean peak areas and were used to compare levels of XPO1 present in each sample to produce a graphical representation of the ratio of free XPO1 detected at each concentration of b-LMB (Figure 2B). “Ratio of bound XPO1” is defined as the ratio of the mean peak area of b-LMB bound XPO1 detected in the eluate compared to the mean peak area of all XPO1 detected in the input lysate, while “free-fraction” refers to the amount of XPO1 not occupied by SINE compound, as described later.
The cells were then collected and processed for the XPO1 occupancy assay. […] For these assays, the “ratio of free-fraction XPO1” is calculated by dividing the mean peak areas of XPO1 occupied by b-LMB (from the eluate) by the total amount of XPO1 (from the input).
Cells were collected, washed with PBS, and lysed with RIPA Buffer (Thermo Scientific) with protease inhibitors [Complete Ultra Tablets, Mini, EDTA-free, Easy pack (Roche), PhosStop Easy (Roche)]. A portion of the lysate was reserved (input) while the rest was added to washed Dynabeads MyOne Streptavidin T1 (Invitrogen) with RIPA Buffer. Samples were incubated overnight with constant rotation at 4°C. Beads were then washed 5 times with modified RIPA (150 mM NaCl, 50 mM Tris, 1% NP-40, 0.1% Na deoxycholate, 1 mM EDTA, pH 7.8). The reserved portion of lysates (input) and the beads were each mixed with Protein Simple buffer (Protein Simple), DTT (Invitrogen), and fluorescent standards (Protein Simple), then boiled at 95°C for 10 min. Eluates and inputs were analyzed using a capillary western method (Peggy Sue; Protein Simple) with the following primary antibodies: XPO1 (Santa Cruz) and β-actin (Santa Cruz). Capillary westerns were performed by SBH Sciences (Natick, MA). Peak areas corresponding to the protein molecular weight of XPO1 and actin were compared for sample inputs, while the ratio of XPO1 peak areas in eluate to input (ratio of bound or free-fraction XPO1) versus compound concentration were used in XLFit model 205 to calculate 50% and 90% occupancy curves.

HCT-116 = assay: MTT cytotoxicity assay; details: Homo sapiens
ASPS-KY = assay: MTT cytotoxicity assay; details: read-out: Selinexor IC50 (μM)

Sequence of XPO1 (O14980 whole entry): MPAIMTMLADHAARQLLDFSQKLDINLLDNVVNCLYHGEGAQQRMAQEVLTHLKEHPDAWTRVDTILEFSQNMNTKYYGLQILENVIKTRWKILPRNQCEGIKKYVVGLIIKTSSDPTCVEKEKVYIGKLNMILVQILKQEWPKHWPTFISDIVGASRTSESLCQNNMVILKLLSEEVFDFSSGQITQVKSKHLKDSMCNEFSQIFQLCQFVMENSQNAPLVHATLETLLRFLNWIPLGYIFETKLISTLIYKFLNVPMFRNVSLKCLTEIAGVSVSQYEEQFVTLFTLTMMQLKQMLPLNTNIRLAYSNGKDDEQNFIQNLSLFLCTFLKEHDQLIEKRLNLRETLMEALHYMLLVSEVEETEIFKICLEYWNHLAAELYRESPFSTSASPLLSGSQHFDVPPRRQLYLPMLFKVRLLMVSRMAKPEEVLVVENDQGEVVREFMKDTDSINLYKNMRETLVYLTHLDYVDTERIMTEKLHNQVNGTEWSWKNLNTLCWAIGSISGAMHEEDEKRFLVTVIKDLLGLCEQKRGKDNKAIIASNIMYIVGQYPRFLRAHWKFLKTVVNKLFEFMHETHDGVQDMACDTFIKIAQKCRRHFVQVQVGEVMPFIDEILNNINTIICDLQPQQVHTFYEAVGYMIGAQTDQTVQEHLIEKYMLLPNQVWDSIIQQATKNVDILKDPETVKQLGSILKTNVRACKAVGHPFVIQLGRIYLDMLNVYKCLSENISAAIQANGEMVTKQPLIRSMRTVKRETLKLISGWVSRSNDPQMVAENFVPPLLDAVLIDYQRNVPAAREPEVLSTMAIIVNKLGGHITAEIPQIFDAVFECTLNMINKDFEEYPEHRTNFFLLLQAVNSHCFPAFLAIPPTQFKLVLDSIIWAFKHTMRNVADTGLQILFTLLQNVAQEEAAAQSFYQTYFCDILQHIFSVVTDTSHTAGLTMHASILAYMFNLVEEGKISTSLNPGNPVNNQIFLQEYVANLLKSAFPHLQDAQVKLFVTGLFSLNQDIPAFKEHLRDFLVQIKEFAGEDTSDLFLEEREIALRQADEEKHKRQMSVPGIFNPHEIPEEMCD

SMILES: O=C(/C=C\n1cnc(-c2cc(C(F)(F)F)cc(C(F)(F)F)c2)n1)NNc1cnccn1 [Selinexor, selinexor]
- IC50 (UCH2): 30 µM
- 90% Occupancy selinexor (XPO1; A549): 0.56 µM
- 90% Occupancy selinexor (XPO1; AML2): 0.22 µM
- 90% Occupancy selinexor (XPO1; AML3): 0.46 µM
- 90% Occupancy selinexor (XPO1; ASPS-KY): 0.72 µM
- 90% Occupancy selinexor (XPO1; HCT-116): 0.76 µM
- 90% Occupancy selinexor (XPO1; HEL): 0.31 µM
- 90% Occupancy selinexor (XPO1; HT1080): 1.35 µM
- 90% Occupancy selinexor (XPO1; HT1080 resistant): 1.67 µM
- 90% Occupancy selinexor (XPO1; Kasumi-6): 0.57 µM
- 90% Occupancy selinexor (XPO1; LS174T): 0.38 µM
- 90% Occupancy selinexor (XPO1; MM.1S): 0.48 µM
- Avg 90% Occupancy (μM) (XPO1; MM.1S cells, SINE compound 1 hour, then 1 nM b-LMB […]): 0.52 +/− 0.05 (n = 2) μM
- 90% Occupancy (XPO1; MM.1S cells, followed by 0.1 μM KPT-9058 as probe): 0.1 µM and 0.10 µM
- 90% Occupancy selinexor (XPO1; MV-4–11): 0.61 µM
- 90% of XPO1 occupancy (XPO1; Rev-GFP U2OS cells, selinexor 1 hour, then 1 nM b-LMB […]): 0.48 µM
- 90% Occupancy (XPO1; Rev-GFP U2OS, selinexor 4 hours, 0 hours post washout, 1 nM b-LMB): 0.16 µM
- 90% Occupancy (XPO1; Rev-GFP U2OS, selinexor 4 hours, 4 hours post washout, 1 nM b-LMB): 2.87 µM
- 90% Occupancy (XPO1; Rev-GFP U2OS, selinexor 4 hours, 24 hours post washout, 1 nM b-LMB): > 10 µM
- 90% Occupancy (XPO1; Rev-GFP U2OS, selinexor 4 hours, 48 hours post washout, 1 nM b-LMB): > 10 µM
- 90% Occupancy (XPO1; Rev-GFP U2OS, selinexor 4 hours, 72 hours post washout, 1 nM b-LMB): > 10 µM
- 90% Occupancy (XPO1; Rev-GFP U2OS, selinexor 4 hours, 96 hours post washout, 1 nM b-LMB): > 10 µM
- 90% Occupancy selinexor (XPO1; THP-1): 0.94 µM
- 90% Occupancy selinexor (XPO1; UCH1): 0.65 µM
- 90% Occupancy selinexor (XPO1; UCH2): 0.89 µM
- IC50 (HCT-116; 72 hours, read-out: IC50): 0.05 µM
- IC50 (HCT-116; read-out: Selinexor IC50 (μM), MTT): 0.05 µM
- IC50 (ASPS-KY): > 10 µM

Reference: article PMC4811503, “A method for quantification of exportin-1 (XPO1) occupancy by Selective Inhibitor of Nuclear Export (SINE) compounds” (Oncotarget, 2015)
